Where no end group is shown, it is not given here.

Data set [1] deals with neurons treated with fragment 25-35 of β-Amyloid peptide. Nature of the data set: survival of cerebral cortex neurons treated with fragment 25-35 of β-amyloid peptide. It counts as cell-based, rat. The settings on record: 25 µM fragment alone; 5 days. How it is done:
β-amyloid peptide is known to be involved in Alzheimer's disease and is a toxic substance to neurons grown in culture (Pike et al., J. of Neurosci., 13(4), 1676-1687 (1993)). Neurons from rat cerebral cortex, prepared as described above were treated with 25 µM of β-amyloid peptide fragment comprising amino acids in positions 25 to 35 mentioned in the above publication. The β-amyloid peptide fragment was dissolved in water and preincubated at 37°C for 48 h in 10% CO2. St-Nle^17-VIP (10 µl/1 ml medium) was added to the culture plates at varying concentrations together with the β-amyloid peptide fragment. The St-Nle^17-VIP was initially dissolved in DMSO to give a concentration of 10^-3 M and all further dilutions were performed in saline. Cells were then incubated for 5 days, stained with antibodies against neuron specific enolase and living neurons were counted as described above.

Data set [2] has as its system neurons treated with a VIP antagonist. The data set is described as follows: survival of cerebral cortical neurons treated with a VIP antagonist.
Protocol: (§1) • (a) Cerebral cortical cultures were prepared by a slight modification of the techniques described by Forsythe and Westbrook, (J. Physiol. Lond. 396:515 (1988)), in which cerebral cortex was used instead of hippocampus and newborn rats were utilized instead of E16 mice. […] Cerebral cortical cells were counted as above, however, only 40 fields per plate were counted comprising an area of 20 mm^2.
(§2) • (a) Cells were prepared as described in Example 5. […] One treatment was given at the beginning of a five day test period. Cell counts were performed on 100 fields, with a total area of 50 mm^2. Neurons were counted without knowledge of treatment.
For the next data set, the system named is untreated neurons. Nature of the data set: survival of untreated cerebral cortical neurons (protection from naturally occurring death). The settings on record: for concentrations able to protect cells from naturally occurring death: cerebral cortical cultures of newborn rats, number of cells at 10^-12 M serves as control, Figs. 2-4.

Protocol for untreated neurons: as §1, §2

Consider “GSNKGAIIGLM [fragment 25-35 of β-amyloid peptide]”, for which the “number of living neurons” value in data set [1] was 42 per 20 mm^2. For “St-A-V-T-T-D-N-Y-T (stearyl-AVTTDNYT) [peptide 5]”, the “effect on neuronal survival” value in data set [2] (in the presence (Fig. 5A) and in the absence (Fig. 5B) of the VIP antagonist) is recorded as “VIP agonist, stimulating neuronal survival”. In addition, the “concentration of maximal activity (neuronal survival)” value in data set [2] (in the presence of 10^-8 M VIP antagonist, five day test period, Fig. 5A) is 10^-10 M; in the data set on untreated neurons (in absence of the VIP antagonist, five day test period, Fig. 5B), 10^-8 M. For the substance “St-H-S-D-G-I-F-T-D-S-Y-S-R-Y-R (stearyl-HSDGIFTDSYSRYR) [peptide 1]”, in the data set on untreated neurons, the “concentrations able to protect cells from naturally occurring death” value is “above 10^-8 M”. The same measure, in the same setting: for “St-K-Q-M-A-V-K-K-Y-L-A-A-V-L (stearyl-KQMAVKKYLAAVL) [peptide 2]” the value was “above 10^-9 M”.

These data come from patent EP0620008B1, “Use of vip, analogues and fragments thereof for the treatment of neurodegenerative diseases” (YEDA RESEARCH AND DEVELOPMENT COMPANY, LTD., priority 1993, dated 1999).
